The subject of the experiment is Plasmodium berghei. Briefly: Luciferase/luciferin-expressing antifolate-resistant parasites were used to infect a culture of HepG2 cells that were pre-incubated with compounds. Infected hepatocytes emit light due to the luciferase reaction. Assay results are presented as the percent inhibition of light emission compared to control. […]. As to conditions: sporozoite; for IC90: read-out: LUCIFERASE INFECTION ASSAY - IC90. Type of experiment: functional.

Where [1] appears, read: read-out: LUCIFERASE INFECTION ASSAY - IC50.

The IC50 is the point on the concentration scale where inhibition reaches its midpoint. As a reminder, the IC90 is the concentration needed for an effect of 90%. As for `CC(C)c1ccc(NC(=O)C2=CN3CCN(Cc4ccccc4)C(=O)N=C3O2)cc1`, the 90% effect concentration (IC90) was above 10 µM. The half-inhibitory concentration (IC50) (FFLUC_HILL_SLOPE 11.9, FFLUC_R_SQUARED 0.0164, read-out: LUCIFERASE INFECTION ASSAY - IC50) was above 10 µM.
As to `COc1cc(/C=N/NC(=O)c2cc3c(s2)CCC(C)C3)ccc1OC(=O)c1ccco1` (stereo not given), the IC90 was above 10 µM. The half-inhibitory concentration (IC50) under setting [1] is above 10 µM.
For `CCOc1ccc(C2=NNC(=Nc3cccc(S(=O)(=O)N(C)C)c3)SC2)cc1`, the IC90 came to 4.99 µM. In addition, for the setting “FFLUC_HILL_SLOPE 1.45, FFLUC_R_SQUARED 0.572, HEPG2TOX_HILL_SLOPE 2.21, HEPG2TOX_R_SQUARED 0.976, PBLUC_HILL_SLOPE 3.43, PBLUC_R_SQUARED 0.708, read-out: LUCIFERASE INFECTION ASSAY - IC50”, the IC50 came to 2.63 µM.
For the molecule `c1cc(NCCN2CCOCC2)ncc1-c1cn2c(-c3ccc4c(c3)OCO4)cnc2cn1`, the 90% effect concentration (IC90) was above 7.42 µM. Besides, under setting [1], the IC50 is above 7.42 µM.
As for `CC(CCc1ccccc1)NC(=O)Cn1c(=O)c(=O)n(Cc2ccccc2)c2ccc(Cl)cc21` (stereo not given), the IC90 was above 10 µM. In addition, the IC50 (FFLUC_HILL_SLOPE 12.6, FFLUC_R_SQUARED 0.716, read-out: LUCIFERASE INFECTION ASSAY - IC50) was above 10 µM.
On to `CCOC(=O)c1cc(C#N)c(Sc2nnc(SC)s2)nc1C(F)(F)F`, for which the IC90 is above 8.12 µM. Moreover, the IC50 (HEPG2TOX_HILL_SLOPE 16.4, HEPG2TOX_R_SQUARED 0.12, PBLUC_HILL_SLOPE 2.78, PBLUC_R_SQUARED 0.452, read-out: LUCIFERASE INFECTION ASSAY - IC50) amounted to 4.34 µM.
With `Nc1ccc(-c2cn3c(-c4cccc(O)c4)cnc3cn2)cn1`, the IC90 was above 10.9 µM. In addition, where the note is “PBLUC_HILL_SLOPE 9.28, PBLUC_R_SQUARED 0.463, read-out: LUCIFERASE INFECTION ASSAY - IC50”, the IC50 is 9.03 µM.
For `C=CCN(CC(=O)NCc1ccc2c(c1)OCO2)S(=O)(=O)c1ccc(Cl)c(Cl)c1`, the 90% effect concentration (IC90) is above 10 µM. Also, under setting [1], the IC50 is above 10 µM.
For `CCCNC(=O)c1c(NC(=O)c2ccc(F)cc2)nc2ccc(C)cn12`, the IC90 was above 9.31 µM. In addition, the IC50 (PBLUC_HILL_SLOPE 1.32, PBLUC_R_SQUARED 0.773, read-out: LUCIFERASE INFECTION ASSAY - IC50) was 3.1 µM.
On to `CCOc1ccc(OCC)c(S(=O)(=O)Oc2cccc3ccc(C)nc23)c1`, for which the IC90 is above 8.52 µM. The IC50 (HEPG2TOX_HILL_SLOPE 2.15, HEPG2TOX_R_SQUARED 0.762, PBLUC_HILL_SLOPE 2.2, PBLUC_R_SQUARED 0.11, read-out: LUCIFERASE INFECTION ASSAY - IC50) came to 7.25 µM.
As for `Cc1ccc(Br)c(NS(=O)(=O)c2cccc(C(=O)Nc3cccc4c[nH]nc34)c2)c1`, the IC90 is above 10 µM. The half-maximal inhibitory concentration (IC50) (FFLUC_HILL_SLOPE 12.1, FFLUC_R_SQUARED 0.239, PBLUC_HILL_SLOPE 20.2, PBLUC_R_SQUARED 0.144, read-out: LUCIFERASE INFECTION ASSAY - IC50) turned out to be 9.98 µM.
As for `O=C(Nc1ccc(-n2cccn2)nc1)C1=NN(c2ccccc2)C(=O)CN1`, the IC90 is above 10 µM. For the same molecule, the IC50 (PBLUC_HILL_SLOPE 2.66, PBLUC_R_SQUARED 0.194, read-out: LUCIFERASE INFECTION ASSAY - IC50) was above 10 µM.
`Cc1ccc(-c2nc(C(=O)NC3CC3)cc3c2[nH]c2ccccc23)cc1`: the IC90 turned out to be 7.38 µM. Further, the IC50 (HEPG2TOX_HILL_SLOPE 1.45, HEPG2TOX_R_SQUARED 0.961, PBLUC_HILL_SLOPE 3.11, PBLUC_R_SQUARED 0.33, read-out: LUCIFERASE INFECTION ASSAY - IC50) was 3.64 µM.
As for `O=S(=O)(Nc1cccc2cccnc12)c1cc(Cl)c(Cl)cc1Cl`, the IC90 is above 8.51 µM. The IC50 (PBLUC_HILL_SLOPE 9.06, PBLUC_R_SQUARED 0.472, read-out: LUCIFERASE INFECTION ASSAY - IC50) was above 8.51 µM.
Consider `COc1cc(C2(O)CS/C(=C(/C#N)C(=O)Nc3ccc(Cl)cc3)N2c2ccccc2)cc(OC)c1OC` (stereo not given), for which the concentration for an effect of 90% (IC90) was above 10 µM. In addition, where the note is “HEPG2TOX_HILL_SLOPE 8.02, HEPG2TOX_R_SQUARED 0.929, PBLUC_HILL_SLOPE 8.63, PBLUC_R_SQUARED 0.488, read-out: LUCIFERASE INFECTION ASSAY - IC50”, the IC50 worked out at 8.71 µM.
Turning to `CCCc1cc(=O)nc(SCC(=O)C23CC4CC(CC(C4)C2)C3)[nH]1`, the IC90 is 9.67 µM. Besides, where the note is “PBLUC_HILL_SLOPE 3.05, PBLUC_R_SQUARED 0.0755, read-out: LUCIFERASE INFECTION ASSAY - IC50”, the IC50 came to 4.7 µM.
For the molecule `CCOc1ccccc1N(C(=O)C1CC=CCC1)c1nc2ccccc2s1` (stereo not given), the IC90 is above 10 µM. The IC50 (HEPG2TOX_HILL_SLOPE 6.4, HEPG2TOX_R_SQUARED 0.335, PBLUC_HILL_SLOPE 2.71, PBLUC_R_SQUARED 0.0983, read-out: LUCIFERASE INFECTION ASSAY - IC50) was 7.73 µM.
With `COc1ccc(NC(=O)NCC(=O)c2cc(C)n(-c3ccc(C)c(C)c3)c2C)cc1`, the concentration for an effect of 90% (IC90) came out at 3.99 µM. Besides, under “HEPG2TOX_HILL_SLOPE 6.34, HEPG2TOX_R_SQUARED 0.826, PBLUC_HILL_SLOPE 22.8, PBLUC_R_SQUARED 0.569, read-out: LUCIFERASE INFECTION ASSAY - IC50”, the IC50 stood at 3.63 µM.
Turning to `NCCCNc1ccnc2cc(Cl)ccc12`, the 90% effect concentration (IC90) is above 14 µM. Further, the IC50 (PBLUC_HILL_SLOPE 2.91, PBLUC_R_SQUARED 0.438, read-out: LUCIFERASE INFECTION ASSAY - IC50) was determined as 8.74 µM.
As for `CCOc1ccccc1NC(=O)C(c1ccccc1)N1CCC(n2c(=O)[nH]c3ccccc32)CC1` (stereo not given), the IC90 is above 10 µM. The IC50 under setting [1] was 5.29 µM.
With `CCOc1ccc(S(=O)(=O)/N=C2\C=C3N(CCO)CCOC3(O)c3ccccc32)cc1` (stereo not given), the IC90 was above 10 µM. Also, the IC50 (PBLUC_HILL_SLOPE 3.7, PBLUC_R_SQUARED 0.815, read-out: LUCIFERASE INFECTION ASSAY - IC50) came out at 7.21 µM.
With `CC(=O)Nc1ccc(-c2ccnc3n[nH]c(-c4ccsc4)c23)cc1`, the IC90 is 8.76 µM. The IC50 (HEPG2TOX_HILL_SLOPE 11.6, HEPG2TOX_R_SQUARED 0.801, PBLUC_HILL_SLOPE 2.91, PBLUC_R_SQUARED 0.114, read-out: LUCIFERASE INFECTION ASSAY - IC50) is 4.12 µM.
With `CCCn1c(NC(=O)c2c(C)nn(Cc3ccccc3)c2Cl)nc2ccccc21`, the IC90 was above 10 µM. Under “HEPG2TOX_HILL_SLOPE 8.06, 7.61, HEPG2TOX_R_SQUARED 0.217, 0.871, PBLUC_HILL_SLOPE 3.35, PBLUC_R_SQUARED 0.605, read-out: LUCIFERASE INFECTION ASSAY - IC50”, the IC50 worked out at 5.57 µM.
Take `COc1ccc(C2CCCN2Cc2ccc(C(N)=O)cc2)c(OC)c1` (stereo not given): the IC90 is above 10 µM. Also, the IC50 under setting [1] was above 10 µM.
Regarding `COc1cccc(N2CCN(CC(=O)c3c[nH]c4ccccc34)CC2C)c1` (stereo not given), the IC90 was above 9.08 µM. Further, where the note is “PBLUC_HILL_SLOPE 1.43, PBLUC_R_SQUARED 0.653, read-out: LUCIFERASE INFECTION ASSAY - IC50”, the IC50 came out at 4.63 µM.
Consider `O=C(Nc1nc2ccc(Oc3ccccc3)cc2s1)c1ccoc1`, for which the IC90 was above 10 µM. Further, the IC50 (HEPG2TOX_HILL_SLOPE 2.54, HEPG2TOX_R_SQUARED 0.824, PBLUC_HILL_SLOPE 3.93, PBLUC_R_SQUARED 0.329, read-out: LUCIFERASE INFECTION ASSAY - IC50) was determined as 7.66 µM.
For `COc1ccc(-c2ccnc3n[nH]c(-c4ccc5c(c4)OCO5)c23)cc1OC`, the IC90 came to 4.36 µM. The IC50 (HEPG2TOX_HILL_SLOPE 5.74, HEPG2TOX_R_SQUARED 0.837, PBLUC_HILL_SLOPE 9.49, PBLUC_R_SQUARED 0.381, read-out: LUCIFERASE INFECTION ASSAY - IC50) worked out at 3.46 µM.
Take `O=C(NNC1=NN(c2ccccc2)c2ccc(Br)cc2N1)c1ccc(F)cc1`: the 90% effect concentration (IC90) is above 10 µM. The IC50 (FFLUC_HILL_SLOPE 3.33, FFLUC_R_SQUARED 0.811, read-out: LUCIFERASE INFECTION ASSAY - IC50) is above 10 µM.
As for `CCCCn1c(N)c(N(CCC)C(=O)/C=C/c2cccc3cccnc23)c(=O)[nH]c1=O`, the IC90 is 3.69 µM. Further, under “PBLUC_HILL_SLOPE 14.7, PBLUC_R_SQUARED 0.526, read-out: LUCIFERASE INFECTION ASSAY - IC50”, the half-maximal inhibitory concentration (IC50) was found to be 3.18 µM.
As for `Cc1nc(C(=O)NNC(=O)c2ccc(Cl)cc2)cs1`, the IC90 was above 11.2 µM. The IC50 (PBLUC_HILL_SLOPE 2.52, PBLUC_R_SQUARED 0.734, read-out: LUCIFERASE INFECTION ASSAY - IC50) is above 11.2 µM.
In the case of `Cc1ccc2sc(N(Cc3ccccc3)C(=O)CN3CCC(C(N)=O)CC3)nc2c1C`, the IC90 is 4.19 µM. Also, under “PBLUC_HILL_SLOPE 23.7, PBLUC_R_SQUARED 0.191, read-out: LUCIFERASE INFECTION ASSAY - IC50”, the IC50 was determined as 3.82 µM.
As to `Cc1cc(C(=O)Nc2nc3c(C)cccn3c2C(=O)NC2CCCC2)c(C)o1`, the IC90 was above 8.67 µM. The IC50 under setting [1] was above 8.67 µM.
With `O=C(CN1CCC(Cc2ccccc2)CC1)NCc1ccc(F)cc1`, the IC90 is 4.07 µM. For the same molecule, the IC50 (PBLUC_HILL_SLOPE 12.9, PBLUC_R_SQUARED 0.271, read-out: LUCIFERASE INFECTION ASSAY - IC50) was found to be 3.43 µM.
For `CNC(=O)c1ccc(/C=C/C(=O)c2ccc3c4c(cccc24)CC3)cc1`, the IC90 came to 9.31 µM. Also, for the setting “HEPG2TOX_HILL_SLOPE 8.19, HEPG2TOX_R_SQUARED 0.612, PBLUC_HILL_SLOPE 20.8, PBLUC_R_SQUARED 0.622, read-out: LUCIFERASE INFECTION ASSAY - IC50”, the half-inhibitory concentration (IC50) was determined as 8.38 µM.
Take `NC(=O)c1ccc(CN(C2CC2)S(=O)(=O)c2ccc3c(c2)CCC3)cc1`: the IC90 is above 10 µM. Moreover, the 50% inhibitory concentration (IC50) (PBLUC_HILL_SLOPE 1.27, PBLUC_R_SQUARED 0.0564, read-out: LUCIFERASE INFECTION ASSAY - IC50) was above 10 µM.

For the origin of these results see ChEMBL document CHEMBL4483862, “Open-source discovery of chemical leads for next-generation chemoprotective antimalarials” (2018).
